Assay results reported in patent publication US20130029928A1 (priority 2010, published 2013).
Where two headings read alike, the source gives them in different places.

Test: Phase I study CXR1002-001: plasma pharmacokinetics (LC-MS/MS)
Assay type: in vivo, human
Settings: human, plasma, oral, person, plasma, read-out: Concentration; for concentration at 168 h: 168 hr (Day 8); for concentration at 192 h: 192 hr (Day 9); for concentration at 336 h: 336 hr (Day 15); for concentration at 360 h: 360 hr (Day 16); for concentration at 504 h: 504 hr (Day 22); for concentration at 528 h: 528 hr (Day 23); for concentration at 672 h: 672 hr (Day 29); for concentration at 696 h: 696 hr (Day 30); for concentration at 840 h: 840 hr (Day 36); for concentration at 24 h: 24 hr (Day 2); for concentration at 864 h: 864 hr (Day 37)
Text: PK samples, PD (fasting) samples, blood glucose, and blood triglyceride samples, were taken over a 6-week period.
Dose limiting toxicity (DLT) will be based on the toxicity assessments over the first 3-week period of the repeat dosing schedule. PK samples (single blood sample) were taken on the following basis: • Every 6 weeks during the repeat dosing phase • If dosing is interrupted or stopped, samples will be taken at intervals according to patient convenience • PK sampling for safety evaluation may take place at any time, as clinically indicated
Plasma samples were collected after the single 50 mg dose at the following timepoints: Pre-dose, and then 0.25, 0.5, 0.75, 1, 1.5, 2, 3, 4, 6, 24, 48, and 72 hours after administration and then once weekly at weeks 2, 3, 4, 5, and 6 (days 8, 15, 22, 29, and 36). For patients treated with the weekly repeat dose, plasma samples were collected at the following timepoints: Pre-dose and then 2, 3, 4 and 24 hours after administration for a total of 6 weeks. Thereafter a single sample was collected every 6 weeks for monitoring of exposure during long term treatment. Plasma samples were processed at site and stored at −80° C. prior to batch shipment to the analytical laboratory.

## O=C(O)C(F)(F)C(F)(F)C(F)(F)C(F)(F)C(F)(F)C(F)(F)C(F)(F)F [CXR1002]
750 mg, Patient 027, 750 mg
  concentration at 168 h: 168 µM
  concentration at 170 h: 235 µM
  concentration at 171 h: 318 µM
  concentration at 172 h: 344 µM
  concentration at 192 h: 411 µM
  concentration at 336 h: 366 µM
  concentration at 338 h: 384 µM
  concentration at 339 h: 412 µM
  concentration at 340 h: 451 µM
  concentration at 360 h: 569 µM
  concentration at 504 h: 476 µM
  concentration at 506 h: 658 µM
  concentration at 507 h: 669 µM
  concentration at 508 h: 671 µM
  concentration at 528 h: 720 µM
  concentration at 672 h: 606 µM
  concentration at 674 h: 769 µM
  concentration at 675 h: 811 µM
  concentration at 676 h: 757 µM
  concentration at 696 h: 803 µM
  concentration at 840 h: 673 µM
750 mg, Patient 028, 750 mg
  concentration at 2 h: 207 µM
  concentration at 3 h: 174 µM
  concentration at 4 h: 160 µM
  concentration at 24 h: 160 µM
  concentration at 168 h: 161 µM
  concentration at 170 h: 321 µM
  concentration at 171 h: 301 µM
  concentration at 172 h: 273 µM
  concentration at 192 h: 295 µM
  concentration at 336 h: 288 µM
  concentration at 338 h: 473 µM
  concentration at 339 h: 396 µM
  concentration at 340 h: 406 µM
  concentration at 360 h: 450 µM
  concentration at 504 h: 467 µM
  concentration at 506 h: 582 µM
  concentration at 507 h: 490 µM
  concentration at 508 h: 581 µM
  concentration at 528 h: 655 µM
  concentration at 672 h: 522 µM
  concentration at 674 h: 710 µM
  concentration at 675 h: 713 µM
  concentration at 676 h: 700 µM
  concentration at 696 h: 758 µM
  concentration at 840 h: 682 µM
  concentration at 842 h: 824 µM
  concentration at 864 h: 775 µM
750 mg, Patient 028, 750 mg, 843 hr
  concentration at 843 h: 792 µM
750 mg, Patient 028, 750 mg, 844 hr
  concentration at 844 h: 853 µM
950 mg, Patient 029, 950 mg
  concentration at 2 h: 219 µM
  concentration at 3 h: 251 µM
  concentration at 4 h: 307 µM
  concentration at 24 h: 353 µM
  concentration at 168 h: 289 µM
  concentration at 170 h: 604 µM
  concentration at 171 h: 602 µM
  concentration at 172 h: 556 µM
  concentration at 192 h: 606 µM
  concentration at 336 h: 439 µM
  concentration at 338 h: 704 µM
  concentration at 339 h: 777 µM
  concentration at 340 h: 674 µM
  concentration at 360 h: 896 µM
  concentration at 504 h: 400 µM
  concentration at 506 h: 897 µM
  concentration at 507 h: 741 µM
  concentration at 508 h: 701 µM
  concentration at 528 h: 781 µM
  concentration at 672 h: 492 µM
  concentration at 674 h: 841 µM
  concentration at 675 h: 972 µM
  concentration at 676 h: 812 µM
  concentration at 696 h: 949 µM
  concentration at 840 h: 777 µM
  concentration at 842 h: 793 µM
  concentration at 864 h: 1040 µM
950 mg, Patient 030, 950 mg
  concentration at 3 h: 219 µM
  concentration at 4 h: 333 µM
  concentration at 24 h: 214 µM
950 mg, Patient 031, 950 mg
  concentration at 2 h: 267 µM
  concentration at 3 h: 338 µM
  concentration at 4 h: 336 µM
  concentration at 24 h: 348 µM
  concentration at 168 h: 237 µM
  concentration at 170 h: 513 µM
  concentration at 171 h: 463 µM
  concentration at 172 h: 427 µM
  concentration at 192 h: 516 µM
  concentration at 336 h: 554 µM
  concentration at 338 h: 668 µM
  concentration at 339 h: 715 µM
  concentration at 340 h: 697 µM
  concentration at 360 h: 800 µM
  concentration at 504 h: 755 µM
  concentration at 506 h: 794 µM
  concentration at 507 h: 861 µM
  concentration at 508 h: 998 µM
  concentration at 528 h: 958 µM
  concentration at 672 h: 813 µM
  concentration at 674 h: 921 µM
  concentration at 675 h: 882 µM
  concentration at 676 h: 938 µM
  concentration at 696 h: 1030 µM
950 mg, Patient 032, 950 mg
  concentration at 2 h: 292 µM
  concentration at 3 h: 191 µM
  concentration at 4 h: 231 µM
  concentration at 24 h: 161 µM
  concentration at 168 h: 192 µM
  concentration at 170 h: 439 µM
  concentration at 171 h: 478 µM
  concentration at 172 h: 517 µM
  concentration at 192 h: 495 µM
1000 mg, Patient 040, 1000 mg
  concentration at 2 h: 188 µM
  concentration at 3 h: 168 µM
